Source: article PMC8509428, “The Phenoxyalkyltriazine Antagonists for 5-HT6 Receptor with Promising Procognitive and Pharmacokinetic Properties In Vivo in Search for a Novel Therapeutic Approach to Dementia Diseases” (International Journal of Molecular Sciences, 2021)
Like-named read-outs stand apart in the source and are kept apart here.

Experiments:
[1] = target: T1, 5-HT1AR (Homo sapiens, UniProt P08908); experiment: Radioligand binding assay (RBA), 5-HT1AR; details: ± SD; displacement of [3H]-8-OHDPAT, HEK-293 cells; read-out: Ki 5-HT1A (converted)
T1 construct: expressed in transfected cells; host or cells: HEK-293
T1 sequence (P08908 1-422): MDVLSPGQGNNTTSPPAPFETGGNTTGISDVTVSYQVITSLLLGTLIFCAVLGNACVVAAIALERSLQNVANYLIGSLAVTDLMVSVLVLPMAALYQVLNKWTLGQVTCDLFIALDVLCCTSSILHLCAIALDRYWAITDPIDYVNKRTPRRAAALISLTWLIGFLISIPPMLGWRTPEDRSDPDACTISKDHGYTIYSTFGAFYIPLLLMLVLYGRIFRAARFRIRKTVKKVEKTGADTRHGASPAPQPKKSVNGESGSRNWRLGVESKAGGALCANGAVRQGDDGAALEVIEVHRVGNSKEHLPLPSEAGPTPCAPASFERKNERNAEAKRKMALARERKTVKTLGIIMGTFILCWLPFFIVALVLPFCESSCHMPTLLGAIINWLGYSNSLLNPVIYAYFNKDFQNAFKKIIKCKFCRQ
Method: The cells used in the radioligand binding assays receptor 5-HT1A were stably expressed in HEK-293 cells. Transfections were performed with the use of Lipofectamine 2000. The binding procedure was accomplished via the displacement of 2.5 nM [^3H]-8-OHDPAT (135.2 Ci/mmol) for 5-HT1AR. Each compound was tested in triplicate in seven to eight different concentrations (10^−11 to 10^−4 M). The inhibition constants (Ki) were calculated using the Cheng–Prusoff equation [45] and the results are expressed as the mean of at least two independent experiments.

[2] = target: T2, 5-HT2A receptor (Homo sapiens, UniProt P28223); experiment: Functional assay for 5-HT2A receptor (aequorin, CHO-K1 cells); format: cell-based
T2 construct: expressed in transfected cells; host or cells: CHO-K1
Method: Test compounds were dissolved in dimethyl sulfoxide (DMSO) at a concentration of 10 mM. Serial dilutions were prepared in a 96-well microplate in assay buffer and eight concentrations were tested. A cellular aequorin-based functional assay was performed with recombinant CHO-K1 cells expressing mitochondrially targeted aequorin, human GPCR and the promiscuous G protein α16 for 5-HT2A. […] After thawing, cells were transferred to assay buffer (DMEM/HAM’s F12 with 0.1% protease-free BSA) and centrifuged. The cell pellet was resuspended in assay buffer and coelenterazine h was added at final concentrations of 5 μM. […] After 1 h of incubation, 50 μL of the cells suspension was dispensed using automatic injectors built into the plate reader POLARstar Omega, (BMG Labtech, Ortenberg, Germany) onto a white opaque 96-well microplates preloaded with test compounds. Immediate light emission generated following calcium mobilization was recorded for 30 s. In antagonist mode, after 30 min of incubation, the reference agonist was added to the above assay mix and light emission was recorded again. The final concentration of the reference agonist was equal to EC80.

[3] = Bi-directional Caco-2 permeability assay; format: in vitro ADME; details: human, pH 7.4, Caco-2, 10 µM, triplicate
[4] = target: T3, CYP3A4 (Homo sapiens, UniProt P08684); experiment: CYP3A4 P450-Glo assay; format: in vitro ADME; details: 10 μM of compound
T3 construct: purchased Promega
Method: The luminescent CYP3A4 P450-Glo™ Promega® (Madison, WI, USA) was used for the investigation of potential drug-drug interactions. All assays and protocols were described before. The compounds were tested in triplicate at the final concentrations in the range from 0.01 to 25 μM. The luminescent signal was measured by using a microplate reader EnSpire PerkinElmer (Waltham, MA, USA).

[5] = test system: Salmonella Typhimurium TA100; format: cell-based
Excerpt: The used Salmonella Typhimurium TA100 strain has base pair substitution (hisG46 mutation, which target is GGG). […] The occurrence of revertants was visualized by pH indicator dye which was present in the bacterial medium.

[6] = test system: rats; experiment: Forced swim test (FST); format: in vivo, rat; details: for Immobility Time: 60 min before test, mean ± SEM
Method: The experiment was carried out according to the method of [54]. On the first day of the experiment, the animals were gently individually placed in Plexiglas cylinders (40 cm high, 18 cm in diameter) containing 15 cm of water maintained at 23–25 °C for 15 min. On removal from water, the rats were placed for 30 min in a Plexiglas box under 60-W bulb to dry. On the following day (24 h later), the rats were replaced in the cylinder and the total duration of immobility was recorded during the whole 5-min test period. The immobility was assigned when no additional activity was observed other than that necessary to keep the rat’s head above the water. Fresh water was used for each animal.

[7] = test system: rats; experiment: Elevated plus-maze (EPM) test; format: in vivo, rat; details: for Open Arms % of entries / Open Arms % of time / Open Arms Distance / Open Arms Entries / Open Arms Time: mean ± SEM
Excerpt: The testing procedure was based on a method described by. Plus-maze apparatus (an automated device produced by Campden Instruments Ltd. (Leicestershire, UK) made of durable, high density, non-porous black plastic, elevated to a height of 50 cm, consisted of two open arms (50 × 10 cm) and two closed arms (50 × 10 cm, and 30 cm high walls), arranged so that the two arms of each type were opposite each other. The floor of the plus-maze was made of infrared transparent material what means that there are no visible sensors. Plus-maze apparatus was connected to PC software by control chassis. The experiments were conducted in a darkened room, only the center of the maze was illuminated with low-intensity light (30 lux measured on the maze level). Each rat was gently placed in the center of the plus-maze, facing one of the closed arms, immediately after a 5-min adaptation period in a plastic black box (60 × 60 × 35 cm), to increase the overall activity in the EPM. During a 5-min test period, automated Motor Monitor System recorded the number of entries into the closed and open arms and the time spent in either type of arms. The device counted an effective arm-entry when the four paws of a rat were into any arm. The maze was thoroughly cleaned after each trial. The EPM test is an “unconditional” anxiety-like test based on rodents’ natural aversion to heights and open space.

[8] = test system: rats; experiment: Exploratory activity measured in the EPM test; format: in vivo, rat; details: for Total Distance / X Ambulation / Y Ambulation: mean ± SEM
Method: The experiment was performed using an EPM apparatus (details see above). Total ambulation (the total distance covered by a rat, and ambulation along X and Y axis) was taken to discern drug effects on general activity from those on open-arm exploration, during a 5-min test period (i.e., the time equal to the observation period in the EPM test). Rats’ behavior was not videotaped during the test.

[9] = target: human 5-HT6R; details: ± SD; read-out: Ki 5-HT6 (converted); cited from earlier work
[10] = target: dopaminergic receptor D2; details: ± SD; cited from earlier work
[11] = target: 5-HT7R; details: ± SD; read-out: Ki 5-HT7 (converted); cited from earlier work
[12] = cited from earlier work
[13] = test system: hepatoma HepG2 cell line; details: 50 µM; cited from earlier work
[14] = test system: MK-801-induced memory deficits in rats; details: i.p.; cited from earlier work
[15] = target: human serotonin 5-HT6 receptor (Homo sapiens, UniProt P50406); design: host or cells: 1321N1; details: cited from earlier work
Sequence of human serotonin 5-HT6 receptor (P50406 whole entry): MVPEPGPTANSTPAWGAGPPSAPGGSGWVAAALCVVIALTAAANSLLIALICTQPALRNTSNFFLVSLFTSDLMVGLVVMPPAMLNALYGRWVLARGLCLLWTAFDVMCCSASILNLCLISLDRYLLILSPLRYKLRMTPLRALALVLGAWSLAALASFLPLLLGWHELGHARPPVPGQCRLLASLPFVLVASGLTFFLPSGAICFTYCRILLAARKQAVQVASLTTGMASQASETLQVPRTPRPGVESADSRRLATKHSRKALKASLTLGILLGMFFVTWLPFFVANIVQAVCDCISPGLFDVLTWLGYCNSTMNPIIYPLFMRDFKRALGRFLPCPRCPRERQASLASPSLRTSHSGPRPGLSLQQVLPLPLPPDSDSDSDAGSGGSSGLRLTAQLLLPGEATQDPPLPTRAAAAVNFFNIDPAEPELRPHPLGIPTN

T2 sequence (P28223 whole entry): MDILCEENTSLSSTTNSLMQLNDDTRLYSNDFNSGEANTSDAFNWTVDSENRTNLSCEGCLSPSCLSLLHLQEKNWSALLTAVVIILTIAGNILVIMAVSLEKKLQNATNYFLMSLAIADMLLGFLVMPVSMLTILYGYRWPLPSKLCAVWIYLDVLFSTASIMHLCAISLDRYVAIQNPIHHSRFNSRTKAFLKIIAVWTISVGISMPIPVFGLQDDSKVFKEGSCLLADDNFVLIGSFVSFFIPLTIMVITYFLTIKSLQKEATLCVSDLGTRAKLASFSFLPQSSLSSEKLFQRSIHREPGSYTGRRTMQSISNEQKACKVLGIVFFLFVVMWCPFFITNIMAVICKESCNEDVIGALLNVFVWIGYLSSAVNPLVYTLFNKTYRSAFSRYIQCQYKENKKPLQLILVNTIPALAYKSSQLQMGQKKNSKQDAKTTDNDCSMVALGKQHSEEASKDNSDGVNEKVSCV
T3 sequence (P08684 whole entry): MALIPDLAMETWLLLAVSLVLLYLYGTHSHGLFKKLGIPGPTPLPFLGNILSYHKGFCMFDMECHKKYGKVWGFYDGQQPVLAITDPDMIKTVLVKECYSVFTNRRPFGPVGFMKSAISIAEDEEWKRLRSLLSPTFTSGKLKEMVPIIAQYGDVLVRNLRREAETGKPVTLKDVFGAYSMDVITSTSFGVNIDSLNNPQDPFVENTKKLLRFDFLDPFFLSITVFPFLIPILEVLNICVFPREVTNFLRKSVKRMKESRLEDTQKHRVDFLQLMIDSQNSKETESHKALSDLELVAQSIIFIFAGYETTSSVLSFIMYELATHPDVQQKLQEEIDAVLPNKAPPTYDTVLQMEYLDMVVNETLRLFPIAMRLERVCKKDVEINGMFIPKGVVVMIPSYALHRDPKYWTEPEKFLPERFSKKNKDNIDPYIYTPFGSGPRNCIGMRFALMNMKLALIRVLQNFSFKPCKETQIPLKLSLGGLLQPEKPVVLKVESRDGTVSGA

CCC(Oc1cc(Cl)ccc1Cl)c1nc(N)nc(N2CCN(C)CC2)n1 (racemic) [Compound 1, (RS)-4-[1-(2,5-dichlorophenoxy)propyl]-6-(4-methylpiperazin-1-yl)-1,3,5-triazin-2-amine]
Ki [1]: 4760 ± 1190 nM | Emax ([2]; Table S2, read-out: 5-HT2A Antagonist mode Emax): 0% | Emax ([2]; read-out: 5-HT2AR Agonist Mode Emax): 58 ± 9.7% | Papp A→B at 2 h, 10 µM [3]: 14.2 ± 0.36 ×10⁻⁶ cm/s | Papp B→A at 2 h, 10 µM [3]: 22.2 ± 1.92 ×10⁻⁶ cm/s | CYP3A4 activity remaining [4]: 44% | Binomial B-Value ([5]; 1 µM): 0.0707 | Number of Revertants ± SD ([5]; 1 µM): 2.00 ± 1.00 | Binomial B-Value ([5]; 10 µM): 0.0707 | Number of Revertants ± SD ([5]; 10 µM): 2.00 ± 1.00 | Immobility Time ([6]; 1 mg/kg i.p.): 241.80 ± 18.7 s | decrease of immobility time vs vehicle-treated group ([6]; 3 mg/kg): about 30% | Immobility Time ([6]; 3 mg/kg i.p.): 175.29 ± 18.1 s | decrease of immobility time vs vehicle-treated group ([6]; 10 mg/kg): about 36% | Immobility Time ([6]; 10 mg/kg i.p.): 163.63 ± 11.2 s | Open Arms % of entries ([7]; 1 mg/kg i.p.): 32.59 ± 4.23% | Open Arms % of time ([7]; 1 mg/kg i.p.): 25.76 ± 6.11% | Open Arms Distance ([7]; 1 mg/kg i.p.): 788 ± 175 cm | Open Arms Entries ([7]; 1 mg/kg i.p.): 9.88 ± 1.99 | Open Arms Time ([7]; 1 mg/kg i.p.): 58.90 ± 14.20 s | Open Arms % of entries ([7]; 3 mg/kg i.p.): 29.49 ± 3.48% | Open Arms % of time ([7]; 3 mg/kg i.p.): 10.27 ± 2.05% | Open Arms Distance ([7]; 3 mg/kg i.p.): 307 ± 78 cm | Open Arms Entries ([7]; 3 mg/kg i.p.): 6.14 ± 0.77 | Open Arms Time ([7]; 3 mg/kg i.p.): 24.81 ± 5.24 s | Open Arms % of entries ([7]; 10 mg/kg i.p.): 42.23 ± 9.09% | Open Arms % of time ([7]; 10 mg/kg i.p.): 18.34 ± 4.19% | Open Arms Distance ([7]; 10 mg/kg i.p.): 538 ± 104 cm | Open Arms Entries ([7]; 10 mg/kg i.p.): 7.20 ± 1.66 | Open Arms Time ([7]; 10 mg/kg i.p.): 43.36 ± 9.08 s | anxiolytic-like activity in EPM test ([7]; i.p., 60 min before test): did not show anxiolytic-like activity | Total Distance ([8]; 1 mg/kg i.p.): 4520 ± 168 cm | X Ambulation ([8]; 1 mg/kg i.p.): 172 ± 6 | Y Ambulation ([8]; 1 mg/kg i.p.): 99 ± 6 | Total Distance ([8]; 3 mg/kg i.p.): 3995 ± 218 cm | X Ambulation ([8]; 3 mg/kg i.p.): 146 ± 10 | Y Ambulation ([8]; 3 mg/kg i.p.): 82 ± 7 | decrease of total distance ([8]; 10 mg/kg i.p.): 20% | Total Distance ([8]; 10 mg/kg i.p.): 3681 ± 256; p < 0.05 F(3,24) = 4.5291; p < 0.05 cm | X Ambulation ([8]; 10 mg/kg i.p.): 140 ± 11 F(3,24) = 3.8035; p < 0.05 | Y Ambulation ([8]; 10 mg/kg i.p.): 83 ± 8 F(3,24) = 1.9215; NS | Ki [9]: 6 ± 1 nM | Ki [10]: 320 ± 19 nM | Ki [11]: 5710 ± 967 nM | number of metabolites formed ([12]; RLMs, 120 min): six | parent biotransformed ([12]; RLMs, 120 min): more than 90% | parent remaining (metabolic stability) ([12]; compound 1, RLMs): < 10% | hepatotoxic effect, HepG2 [13]: weak hepatotoxic effect | effective dose in NOR test [14]: 3 mg/kg | 5-HT6 Antagonist Mode Emax ([15]; Table S1, compound 1): 98% | 5-HT6R Agonist Mode Emax ([15]; compound 1, previous functional assays): 4.00 ± 0.00%
